Laboratory results published in PubChem BioAssay (NCI).
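These data come from cells grown in 96-well plates and exposed to compound for 48 hours at five concentrations. At the TGI there is no net growth.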 Where a SMILES comes first, the peptide text is derived from it. The star is where a group is joined. Boc = CC(C)(C)OC(=O)*

Experiments:
Test in all cases: NCI-60 cell line screen, 48 h
COLO 205 colon = test system: COLO 205 colon
NCI/ADR-RES ovarian = test system: NCI/ADR-RES ovarian
MDA-N = test system: MDA-N
LOX IMVI melanoma = test system: LOX IMVI melanoma
RPMI-8226 leukemia = test system: RPMI-8226 leukemia
SNB-75 CNS = test system: SNB-75 CNS
NCI-H226 lung = test system: NCI-H226 lung
T-47D breast = test system: T-47D breast

Row | Compound | TGI (COLO 205 colon) [µM] | TGI (NCI/ADR-RES ovarian) [µM] | TGI (MDA-N) [µM] | TGI (LOX IMVI melanoma) [µM] | TGI (RPMI-8226 leukemia) [µM] | TGI (SNB-75 CNS) [µM] | TGI (NCI-H226 lung) [µM] | TGI (T-47D breast) [µM]
1 | CN(C)CCn1c(=O)oc2cc(C(=O)CN3CCOCC3)ccc21 | > 100 | > 100 | > 100 | > 100 | > 100 | > 100 | > 100 | 
2 | COC(=O)C(Cc1c[nH]c2ccccc12)NC(=O)C(Cc1c[nH]c2ccccc12)NC(=O)C(Cc1c[nH]c2ccccc12)NC(=O)OC(C)(C)C (stereo not drawn) (Boc-Trp-Trp-Trp-OMe; configuration not given here) | 42.7 |  | 40.3 |  | 58.6 | 42 | 37.1 | 29.4
3 | COc1cc(/C=C2\N=C(c3ccccc3)N(c3nc4cc(C)c(C)cc4s3)C2=O)cc(OC)c1OC | > 100 | > 100 | 38.9 | 68.7 | > 100 | 60 |  | > 100
4 | Nc1nc(N)c2ncn(-c3ccc(Cl)c(Cl)c3)c2n1 | 28.7 | > 100 | > 100 |  | 75.2 |  | > 100 | > 100
5 | Cc1cc(S(=O)(=O)Nc2nc3ccccc3[nH]2)c(S)cc1Cl | > 100 | > 100 | > 100 | 39.8 | > 100 | > 100 |  | > 100
6 | Cc1ccc(S(=O)(=O)NC(=O)NC(C(=O)O)C(C)O)cc1 (stereo unspecified) | > 100 | > 100 | > 100 | > 100 | > 100 | > 100 |  | > 100
7 | C[n+]1c2ccccc2c(C(=O)NC(CCCN=C(N)N)C(=O)O)c2ccccc21 (stereo unspecified) | > 100 | > 100 | > 100 | > 100 | > 100 | > 100 |  | > 100
8 | COc1ccc2[nH]c3c([N+](=O)[O-])ccc(Cl)c3c(=O)c2c1 | 32.7 | > 71.2 | > 55.6 | 34.5 | 45.4 |  | > 100 | > 84.7
9 | CC1(C)C(=O)N(O)C(C)(C)N1N=O | > 10 | > 10 |  |  | > 10 |  | > 10 | > 10
10 | COC(=O)/C(=N\N)C(C(=O)C(=O)Nc1cccc([N+](=O)[O-])c1)c1nc2ccc(C(=O)c3ccccc3)cc2[nH]c1=O (stereo unspecified) | > 100 | > 100 | > 100 | > 100 |  | > 100 | > 100 | 
11 | CC(C)(C)OC(=O)NNC(=O)C1Cc2ccccc2OC1=O (stereo unspecified) |  | > 100 | > 100 |  | > 100 |  | > 100 | 
12 | CC(NC1=NCCO1)c1cccs1 (stereo unspecified) | 35.9 | > 100 |  |  | > 100 | > 100 | > 100 | > 100
13 | C/C(=N/NC(=S)N(C)CCc1ccccn1)c1cnccn1 | 21.8 |  | 20.9 |  | 26.1 | 18.4 | 0.0122 | 
14 | NC(N)=NCc1ccc2c(c1)OCO2 |  | > 100 | > 100 | > 100 | > 100 | > 100 |  | > 100
15 | C=C1C(=O)OC2/C=C(\C)C(=O)CC3OC(C)(C)OC3(C)CC(OC(=O)/C(C)=C/C)C12 (stereo unspecified) | > 59.7 |  | > 80.5 | 27.3 | > 100 | > 72.9 | 63.6 | > 64.6
16 | CCc1cccc(CC)c1Nc1nc2c(s1)C(=O)c1ccccc1C2=O | 49.6 |  | 32.3 | 36 | > 100 | 25.4 |  | > 100
17 | COc1cc(/C=C/C=C2\CCC/C(=C\C=C\c3ccc(O)c(OC)c3)C2=O)ccc1O | 71.5 | 48.8 | > 100 | 33.5 | 28.5 | > 100 |  | 36.7
18 | O=C1N(CN2CCOCC2)CN(CN2CCOCC2)C(=O)N1Cc1ccc(-c2ccc(CN3C(=O)N(CN4CCOCC4)CN(CN4CCOCC4)C3=O)cc2)cc1 | > 41.9 | 80.8 |  | 40.6 |  | 49.6 | > 77.3 | > 100
19 | COC(=O)c1ccc(/C=C2\Cc3ccccc3C2=O)cc1 | > 100 | > 100 | > 100 |  | > 100 | > 100 |  | > 100
20 | CN(C(=O)[C@@H](NC(=O)OC(C)(C)C)c1ccccc1)[C@H]1CCCC[C@@H]1N1CCCC1 | > 100 | > 100 |  |  | > 100 |  | > 100 | > 100
21 | COC(=O)CCCC(=O)NC1=C(Nc2ccccc2)C(=O)c2ccccc2C1=O | 35.7 | 56 | 15 | 41.6 | 59.7 | 33.8 |  | 64.8
22 | O=C1NC(=O)[C@@H](OCC2CCCCC2)[C@@H]2OCC3OC(C(O)C3O)C12 (stereo partly specified) | > 100 | > 100 | > 100 | > 100 |  |  | > 100 | > 100
23 | CCOc1ncn(-c2ccc(NC(=S)Nc3cnccn3)cc2)n1 |  | > 10 | > 10 |  |  | > 10 | > 10 | > 10
